Our source for the melting point values is patent US20060094764A1, “Cyanothiophenes, their preparation and their use in pharmaceutical compositions” (Boehringer Ingelheim International GmbH, priority 2004, published 2006).

Structures are written as SMILES. Structures can show the parent of a compound that is named as a salt. Some results are limits rather than exact numbers.

What is called melting point is the temperature, or range, at which the solid turns liquid.

`Cc1ccc(C)c(-c2sc(NC(=O)[C@@H]3C[C@@H]4C=C[C@H]3C4)c(C#N)c2C(F)(F)F)c1`: the melting point lay within 213 to 214 °C. The molecule `CCCc1sc(NC(=O)C2CCCCC2)c(C#N)c1OC` returned a melting point of 146 to 147 °C.

For the molecule `Cc1ccc(C)c(-c2sc(NC(=O)[C@H]3C[C@H]4CC[C@@H]3C4)c(C#N)c2C(F)(F)F)c1`, the melting point turned out to be 230 °C. In turn, `Cc1ccc(C)c(-c2sc(NC(=O)[C@@H]3C[C@H]4C=C[C@@H]3C4)c(C#N)c2C(F)(F)F)c1` gave a melting point of 226 to 227 °C. As to `N#Cc1c(NC(=O)C2CCCCC2)sc(-c2ccccc2)c1Cl`, the melting point is 175 to 180 °C. For `Cc1ccc(N(C)CCCc2sc(NC(=O)C3CC4CCC3CC4)c(C#N)c2C)cc1` (stereo not shown) (as salt: hydrochloride) the value was 133 to 140 °C; for `N#Cc1c(NC(=O)C2CCCCC2)sc(-c2ccccc2)c1Br`, 167 to 168 °C. As to `Cc1ccc(C)c(C2SC(NC(=O)C3CC4CCC3CC4)=C(C#N)C2(Cl)C(F)(F)F)c1` (stereo not shown), the melting point was in the range of 242 to 244 °C. For `Cc1ccc(C)c(-c2sc(NC(=O)[C@H]3C[C@@H]4CC[C@H]3C4)c(C#N)c2C(F)(F)F)c1` the value was 242 °C; for `Cc1ccc(C)c(-c2sc(NC(=O)[C@H]3C[C@H]4C=C[C@@H]3C4)c(C#N)c2C(F)(F)F)c1`, 209 to 211 °C; for `Cc1ccc(C)c(-c2sc(NC(=O)[C@@H]3C[C@@H]4CC[C@H]3C4)c(C#N)c2C(F)(F)F)c1`, 231 to 233 °C. With `Cc1ccc(C)c(-c2sc(NC(=O)[C@@H]3C[C@H]4CC[C@@H]3CC4)c(C#N)c2Cl)c1` (stereo in doubt), the melting point lay in the range of 208 to 210 °C. The molecule `Cc1ccc(C)c(-c2cc(C#N)c(NC(=O)[C@@H]3C[C@@H]4CC[C@H]3C4)s2)c1` registered a melting point of 168 to 169 °C. Consider `Cc1ccc(N(C)CCCc2sc(NC(=O)[C@@H]3C[C@@H]4CC[C@H]3C4)c(C#N)c2C)cc1` (as salt: hydrochloride), for which the melting point was 116 to 129 °C (dec.). Take `Cc1ccc(C)c(-c2sc(NC(=O)[C@@H]3C[C@H]4CC[C@@H]3C4)c(C#N)c2C(F)(F)F)c1`: the melting point lay in the range of 239 to 240 °C. Regarding `Cc1c(CCCN(C)c2ccccn2)sc(NC(=O)C2CC3CCC2CC3)c1C#N` (stereo not shown) (as salt: hydrochloride), the melting point is > 80 °C (dec.). As for `N#Cc1c(NC(=O)C2CCCCC2)sc(-c2ccccc2)c1[N+](=O)[O-]`, the figure is 213 to 214 °C. As for `Cc1ccc(C)c(-c2sc(NC(=O)[C@@H]3C[C@@H]4CC[C@H]3C4)c(C#N)c2Cl)c1`, the figure is 117 to 119 °C; as for `N#Cc1c(NC(=O)C2CCCCC2)sc(-c2ccccc2)c1C#N`, 208 to 212 °C.
